Consider 59 compounds from US20230364079A1, “COMPOUND AS BRAIN-PERMEABLE BTK OR HER2 INHIBITOR, PREPARATION METHOD THEREFOR, AND USE THEREOF” (CHENGDU HYPERWAY PHARMACEUTICALS CO., LTD., priority 2020, published 2023).

For this assay, the target named is BTK wild-type kinase (Homo sapiens (Human), UniProt Q06187). Briefly: BTK kinase activity inhibition test in vitro (Caliper EZ Reader). The assay is classed as biochemical. The method, then: In the tests on the activity of inhibiting BTK and HER2 kinase in vitro in the examples of the present disclosure, powder of the compound was dissolved in 100% DMSO to prepare a 10 mM stock solution and stored at-20° C. in the dark. […] In addition, the compounds were subjected to experiments such as liver microsome metabolic stability, rat PK, rat brain penetration rate, and drug efficacy model in the examples of the present disclosure.
Sequence of BTK wild-type kinase (Q06187 whole entry): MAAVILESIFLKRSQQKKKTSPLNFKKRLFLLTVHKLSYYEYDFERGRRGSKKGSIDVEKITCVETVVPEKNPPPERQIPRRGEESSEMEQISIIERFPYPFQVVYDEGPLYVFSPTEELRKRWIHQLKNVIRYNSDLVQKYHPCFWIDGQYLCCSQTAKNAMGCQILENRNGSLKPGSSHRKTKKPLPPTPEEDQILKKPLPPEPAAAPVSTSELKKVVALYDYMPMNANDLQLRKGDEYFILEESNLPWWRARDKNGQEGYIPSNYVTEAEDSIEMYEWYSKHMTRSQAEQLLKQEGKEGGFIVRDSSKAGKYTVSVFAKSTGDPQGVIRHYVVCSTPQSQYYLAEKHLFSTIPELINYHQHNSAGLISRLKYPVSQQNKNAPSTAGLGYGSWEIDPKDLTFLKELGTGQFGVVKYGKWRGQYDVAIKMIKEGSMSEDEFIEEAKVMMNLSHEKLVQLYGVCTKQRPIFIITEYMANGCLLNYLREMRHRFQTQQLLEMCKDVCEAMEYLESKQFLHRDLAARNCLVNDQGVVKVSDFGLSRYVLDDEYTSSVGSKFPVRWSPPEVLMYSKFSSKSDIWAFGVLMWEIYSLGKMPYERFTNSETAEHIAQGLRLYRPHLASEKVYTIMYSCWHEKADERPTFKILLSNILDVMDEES
Compound powders were dissolved in 100% DMSO to make 10 mM stock solutions, which were stored at -20° C. in the dark.
2: Kinase Reaction Process
(1) Preparation of 1 × Kinase buffer.
(5) After centrifugation at 1000 rpm for 30 seconds, the reaction plate was shaken to mix well and incubated at room temperature for 10 min.
(6) A 5/3-fold final concentration of a mixed solution of ATP and Kinase substrate 2 was prepared with 1 × Kinase buffer.
(7) 15 µL of the mixed solution of ATP and substrate with 5/3-fold final concentration was added to start the reaction.
(8) The 384-well plate was centrifuged at 1000 rpm for 30 seconds, shaken to mix well, and incubated at room temperature for 10 min.
(9) 30 µL of a stop solution was added to stop the kinase reaction, and after centrifugation at 1000 rpm for 30 seconds, the plate was shaken to mix well;
(10) The conversion rate was read with Caliper EZ Reader.
where Conversion%_sample indicates the conversion rate reading of the sample; Conversion%_min is the average reading of the negative control wells, representing the conversion rate reading of the wells without enzyme activity; Conversion%_max is the average reading of the ratio of the positive control wells, representing the conversion rate reading of the wells without compound inhibition.
Dose-Response Curve Fitting
With the log value of the concentration as the X-axis, and the percentage inhibition rate as the Y-axis, the dose-effect curve was fitted using the log(inhibitor) vs. response-Variable slope of the analysis software GraphPad Prism 5, so as to determine the IC50 value of each compound on the enzyme activity.
The calculation formula was: […]
Compound `Cc1ccc(Oc2ccc(-c3nc(C4CCC(CO)OC4)n4ccnc(N)c34)cc2)c(F)c1` (centres unmarked) [Compound 77] showed an IC50 of 0.02 to 0.1 µM.
`Nc1nccn2c(C34COC(CO)(C3)C4)nc(-c3ccc(Oc4cccc(OC(F)(F)F)c4F)cc3F)c12` [Compound 40] displayed an IC50 of 0.005 to 0.02 µM.
The compound `COc1cccc(C(F)(F)c2ccc(-c3nc(C4CCC(CO)OC4)n4ccnc(N)c34)cc2)c1C#N` (centres unmarked) [Compound 123] showed an IC50 of 0.02 to 0.1 µM.
On to `Nc1ncnc2c1c(-c1ccc(Oc3ccccc3)cc1F)nn2C1CCC(CO)OC1` (centres unmarked) [Compound 54], for which the IC50 was in the range of 0.02 to 0.1 µM.
The figure for `COc1ccc(C#N)c(Oc2ccc(-c3nc(C4CCC(CO)OC4)n4ccnc(N)c34)cc2)c1` (centres unmarked) [Compound 96] is 0.02 to 0.1 µM; for `COc1cccc(C(F)(F)c2ccc(-c3nc(C45CCC(CO)(CC4)OC5)n4ccnc(N)c34)cc2)c1` [Compound 132] it is 0.02 to 0.1 µM.
For `COc1cccc(Oc2ccc(-c3nc(C4CCC(CO)OC4)n4c(C)cnc(N)c34)cc2)c1F` (centres unmarked) [Compound 134] the value was 0.005 to 0.02 µM; for `COc1cccc(Oc2ccc(-c3nc(C45CCC(CO)(CC4)OC5)n4ccnc(N)c34)cc2)c1F` [Compound 37], under 0.005 µM.
Compound `Nc1nccn2c(C3CCC(CO)OC3)nc(-c3ccc(NC(=O)c4ccc(C5CC5)cc4F)cc3)c12` (centres unmarked) [Compound 46] displayed an IC50 of 0.1 to 1 µM.
`Nc1ncc(Cl)n2c(C34CCC(CO)(CC3)OC4)nc(-c3ccc(C(=O)Nc4ccccn4)cc3F)c12` [Compound 36] had a half-inhibitory concentration (IC50) of 0.005 to 0.02 µM.
For `C[C@](N)(c1ccc(F)cc1)c1cnc(-c2nc(C3CCC(CO)OC3)n3ccnc(N)c23)nc1` (some centres unmarked) [Compound 49] the value was over 1 µM; for `Nc1ncc(Cl)n2c(C3CCC(CO)OC3)nc(-c3ccc(C(=O)Nc4ccccn4)cc3)c12` (centres unmarked) [Compound 3], 0.02 to 0.1 µM; for `COc1cccc(Oc2ccc(-c3nc(C45CCC(CO)(CC4)OC5)n4ccnc(N)c34)cc2)c1C(F)(F)F` [Compound 112], 0.005 to 0.02 µM.
The figure for `Nc1nccn2c(C34CCC(CO)(CC3)OC4)nc(-c3ccc(C(F)(F)c4ccc(F)c(Cl)c4)cc3)c12` [Compound 140] is 0.1 to 1 µM; for `Cc1cc(NC(=O)c2ccc(C3CC3)cc2F)c(F)cc1-c1nc(C2CCC(CO)OC2)n2ccnc(N)c12` (centres unmarked) [Compound 31] it is over 1 µM.
The figure for `Nc1nccn2c(C3CCC(CO)OC3)nc(-c3ccc(C(=O)Nc4ncccc4F)cc3)c12` (centres unmarked) [Compound 87] is 0.1 to 1 µM.
Regarding `Nc1ncc(Cl)n2c(C3CCC(CO)OC3)nc(-c3ccc(C(=O)Nc4ccccn4)cc3F)c12` (centres unmarked) [Compound 4], the IC50 is 0.02 to 0.1 µM.
The compound `Nc1nccn2c(C34COC(CO)(C3)C4)nc(-c3ccc(C(=O)Nc4cc(C(F)(F)F)ccn4)cc3)c12` [Compound 136] displayed an IC50 of 0.005 to 0.02 µM.
In turn, `Nc1nccn2c(C3CCC(CO)OC3)nc(-c3ccc(C(=O)c4ccccc4O)cc3)c12` (centres unmarked) [Compound 66] returned a half-maximal inhibitory concentration (IC50) of 0.02 to 0.1 µM.
As for `COc1cccc(Oc2ccc(-c3nc(C4CCC(CO)OC4)n4ccnc(N)c34)c(F)c2)c1F` (centres unmarked) [Compound 10], the 50% inhibitory concentration (IC50) was under 0.005 µM.
Compound `Nc1nccn2c(C3CCC(CO)OC3)nc(-c3ccc(Oc4ccc5c(c4F)OCC5)cc3)c12` (centres unmarked) [Compound 84] showed an IC50 of 0.02 to 0.1 µM.
The figure for `COc1c(F)ccc(Oc2ccc(-c3nc(C4CCC(CO)OC4)n4ccnc(N)c34)cc2)c1F` (centres unmarked) [Compound 20] is 0.005 to 0.02 µM; for `Nc1nccn2c(C3CCC(CO)OC3)nc(-c3ccc(C(=O)Nc4cc(C(F)(F)F)ccn4)cc3F)c12` (centres unmarked) [Compound 105] it is under 0.005 µM.
For `Nc1nccn2c(C3CCC(CO)OC3)nc(-c3ccc(Oc4cccc(C5CC5)c4F)cc3)c12` (centres unmarked) [Compound 22] the value was 0.02 to 0.1 µM.
For `Nc1nccn2c(C34CCC(CO)(CC3)OC4)nc(-c3ccc(C(F)(F)c4cccc(F)c4)cc3)c12` [Compound 142] the value was 0.1 to 1 µM.
In turn, `COc1cccc(Oc2ccc(-c3nn(C4CCC(CO)OC4)c4ncnc(N)c34)cc2)c1F` (centres unmarked) [Compound 29] came in with an IC50 of 0.005 to 0.02 µM.
The compound `Nc1nccn2c(C34CCC(CO)(CC3)OC4)nc(-c3ccc(Oc4cccc(OC(F)(F)F)c4F)cc3)c12` [Compound 95] came in with a concentration for half-maximal inhibition (IC50) of 0.005 to 0.02 µM.
In turn, `Nc1nccn2c(C3CCC(CO)OC3)nc(-c3ccc(Oc4c(F)c(F)cc(F)c4F)cc3F)c12` (centres unmarked) [Compound 18] had an IC50 of 0.02 to 0.1 µM.
Compound `COc1cccc(Oc2ccc(-c3nn(C4CCC(CO)OC4)c4c(Cl)cnc(N)c34)cc2)c1F` (centres unmarked) [Compound 52] registered an IC50 of 0.005 to 0.02 µM.
For `COc1cccc(C(=O)c2ccc(-c3nc(C4CCC(CO)OC4)n4ccnc(N)c34)cc2)c1F` (centres unmarked) [Compound 61] the value was 0.005 to 0.02 µM; for `Nc1nccn2c(C3CCC(CO)OC3)nc(-c3ccc(C(=O)Nc4ccccc4F)cc3)c12` (centres unmarked) [Compound 133], 0.1 to 1 µM; for `Nc1cccc(NC(=O)c2ccc(-c3nc(C4CCC(CO)OC4)n4ccnc(N)c34)cc2)n1` (centres unmarked) [Compound 71], 0.02 to 0.1 µM.
The figure for `Nc1nccn2c(C3CCC(CO)OC3)nc(-c3ccc(C(=O)Nc4ccc(C(F)(F)F)cn4)cc3)c12` (centres unmarked) [Compound 73] is 0.1 to 1 µM; for `Nc1nccn2c(C3CCC(CO)OC3)nc(-c3ccc(C(=O)Nc4cccc(Br)n4)cc3)c12` (centres unmarked) [Compound 72] it is 0.1 to 1 µM; for `Nc1nccn2c(C34CCC(CO)(CC3)OC4)nc(-c3ccc(C(F)(F)c4ccc(F)cc4)cc3)c12` [Compound 141] it is 0.1 to 1 µM.
For `Nc1nccc2c1c(-c1ccc(C(=O)Nc3ccccn3)cc1F)nn2C1CCC(CO)OC1` (centres unmarked) [Compound 57] the value was 0.02 to 0.1 µM; for `COc1cccc(Oc2ccc(-c3nc(C4COC5C(O)COC45)n4ccnc(N)c34)cc2)c1F` (centres unmarked) [Compound 82], 0.02 to 0.1 µM.
`Nc1ncc(Cl)n2c(C3CCC(CO)OC3)nc(-c3ccc(C(=O)Nc4cc(C(F)(F)F)ccn4)cc3)c12` (centres unmarked) [Compound 110] gave an IC50 of under 0.005 µM.
For `COc1cccc(Oc2ccc(-c3nc(C4CCC(CO)OC4)n4ccnc(N)c34)c(F)c2)c1C#N` (centres unmarked) [Compound 98] the value was under 0.005 µM.
The figure for `Nc1nccn2c(C34COC(CO)(C3)C4)nc(-c3ccc(C(F)(F)c4ccccc4)cc3)c12` [Compound 138] is 0.02 to 0.1 µM; for `COc1cccc(Oc2ccc(-c3nc(C4CCC(CO)OC4)n4ccnc(N)c34)cc2)n1` (centres unmarked) [Compound 104] it is 0.005 to 0.02 µM.
The figure for `COc1cccc(C(F)(F)c2ccc(-c3nc(C45CCC(CO)(CC4)OC5)n4ccnc(N)c34)cc2)c1F` [Compound 129] is 0.005 to 0.02 µM.
As for `Cc1ccc(Oc2ccc(-c3nc(C4CCC(CO)OC4)n4ccnc(N)c34)cc2)cc1` (centres unmarked) [Compound 78], the IC50 fell in the range of 0.02 to 0.1 µM.
Turning to `N#Cc1ccnc(NC(=O)c2ccc(-c3nc(C45COC(CO)(C4)C5)n4ccnc(N)c34)cc2)c1` [Compound 135], the IC50 was in the range of 0.005 to 0.02 µM.
In turn, `COCCOc1ccc(-c2nc(C3CCC(CO)OC3)n3ccnc(N)c23)cc1` (centres unmarked) [Compound 74] gave an IC50 of over 1 µM.
The figure for `NC(=O)c1ccccc1C(=O)c1ccc(-c2nc(C3CCC(CO)OC3)n3ccnc(N)c23)cc1` (centres unmarked) [Compound 99] is over 1 µM.
The figure for `Nc1nccn2c(C34CCC(CO)(CC3)OC4)nc(-c3ccc(C(F)(F)c4cccc(F)c4F)cc3)c12` [Compound 130] is 0.005 to 0.02 µM.
For `Nc1nccn2c(C3CCC(CO)OC3)nc(-c3ccc(OCc4ccccc4)cc3)c12` (centres unmarked) [Compound 55] the value was 0.02 to 0.1 µM; for `Nc1ncnc2c1c(-c1ccc(Oc3ccccc3)cc1)nn2C1CCC(CO)OC1` (centres unmarked) [Compound 53], 0.02 to 0.1 µM; for `Nc1nccn2c(C34COC(CO)(C3)C4)nc(-c3ccc(C(=O)Nc4ccccn4)cc3F)c12` [Compound 43], 0.02 to 0.1 µM.
On to `Nc1nccn2c(C3CC[C@H](CO)OC3)nc(-c3ccc(C(=O)Nc4ccccn4)cc3F)c12` (some centres unmarked) [Compound 1-A], for which the 50% inhibitory concentration (IC50) fell in the range of 0.005 to 0.02 µM.
`Nc1nccn2c(C3COC4C(O)COC34)nc(-c3ccc(C(=O)Nc4ccccn4)cc3)c12` (centres unmarked) [Compound 83] gave an IC50 of 0.1 to 1 µM.
`COc1cccc(Oc2ccc(-c3nc(C4CCC(C5(O)CC5)OC4)n4ccnc(N)c34)cc2)c1F` (centres unmarked) [Compound 50]: the IC50 fell in the range of 0.02 to 0.1 µM.
The figure for `Nc1nccn2c(C34CCC(CO)(CC3)OC4)nc(-c3ccc(C(F)(F)c4ccccc4)cc3F)c12` [Compound 114] is 0.005 to 0.02 µM; for `COc1cc(Oc2ccc(-c3nc(C4CCC(CO)OC4)n4ccnc(N)c34)cc2)ccc1F` (centres unmarked) [Compound 21] it is 0.02 to 0.1 µM.
`COc1cccc(NC(=O)c2ccc(-c3nc(C4CCC(CO)OC4)n4ccnc(N)c34)cc2)n1` (centres unmarked) [Compound 58] came in with an IC50 of over 1 µM.
The figure for `Nc1nccn2c(C34CCC(CO)(CC3)OC4)nc(-c3ccc(Oc4cccc(C(F)(F)F)c4F)cc3)c12` [Compound 93] is 0.005 to 0.02 µM; for `Nc1ncc(Cl)n2c(C34CCC(CO)(CC3)OC4)nc(-c3ccc(C(=O)Nc4cc(C(F)(F)F)ccn4)cc3)c12` [Compound 128] it is under 0.005 µM; for `Nc1nccn2c(C34CCC(CO)(CC3)OC4)nc(-c3ccc(C(=O)Nc4cc(C(F)(F)F)ccn4)cc3F)c12` [Compound 117] it is under 0.005 µM.
